Measured values from PMC9848300, “Discovery of novel enasidenib analogues targeting inhibition of mutant isocitrate dehydrogenase 2 as antileukaemic agents” (Journal of Enzyme Inhibition and Medicinal Chemistry, 2023).

Columns and labels:
[1] = system: CCRF-CEM; assay: NCI 60 antitumor screening (single dose / five doses); type: cell-based; settings: Homo sapiens; CCRF-CEM (leukaemia), single dose 10 μM; read-out: Growth inhibition percentage (GI %)
[2] = system: RPMI-8226; assay: as above; type: cell-based; settings: Homo sapiens; RPMI-8226 (leukaemia), single dose 10 μM; read-out: Growth inhibition percentage (GI %)
[3] = system: SR; assay: as above; type: cell-based; settings: Homo sapiens; SR (leukaemia), single dose 10 μM; read-out: Growth inhibition percentage (GI %)
[4] = system: EKVX; assay: as above; type: cell-based; settings: Homo sapiens; EKVX (non-small cell lung cancer), single dose 10 μM; read-out: Growth inhibition percentage (GI %)
[5] = system: HOP-92; assay: as above; type: cell-based; settings: Homo sapiens; HOP-92 (non-small cell lung cancer), single dose 10 μM; read-out: Growth inhibition percentage (GI %)
[6] = system: HCC-2998; assay: NCI 60 antitumor screening (single dose); type: cell-based; settings: Homo sapiens; HCC-2998 (colon cancer), single dose 10 μM; read-out: Growth inhibition percentage (GI %)
Method in brief: (§1)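 At one concentration (10 μM), compounds are run in triplicate on 60 human cancer lines per the NCI method. Treated-cell growth is recorded as G%. Reported inhibition equals 100 − G%.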

[7] = system: SNB-19; assay: NCI 60 antitumor screening (single dose); type: cell-based; settings: Homo sapiens; SNB-19 (CNS cancer), single dose 10 μM; read-out: Growth inhibition percentage (GI %)
Method in brief: (§2)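 GI% derived as 100 − G% from triplicate growth measurements in the NCI 60 human tumour panel, compound 10 μM, single dose, per NCI protocol.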

[8] = system: TK-10; assay: NCI 60 antitumor screening (single dose); type: cell-based; settings: Homo sapiens; TK-10 (renal cancer), single dose 10 μM; read-out: Growth inhibition percentage (GI %)
Method in brief: as §2

[9] = system: COLO 205; assay: NCI 60 antitumor screening (single dose / five doses); type: cell-based; settings: Homo sapiens; COLO 205 (colon cancer), single dose 10 μM; read-out: Growth inhibition percentage (GI %)
[10] = system: HCT-116; assay: as above; type: cell-based; settings: Homo sapiens; HCT-116 (colon cancer), single dose 10 μM; read-out: Growth inhibition percentage (GI %)
[11] = system: HCT-15; assay: as above; type: cell-based; settings: Homo sapiens; HCT-15 (colon cancer), single dose 10 μM; read-out: Growth inhibition percentage (GI %)
[12] = system: SW-620; assay: as above; type: cell-based, human; settings: Homo sapiens; SW-620 (colon cancer), single dose 10 μM; read-out: Growth inhibition percentage (GI %)
[13] = system: SF-295; assay: as above; type: cell-based; settings: Homo sapiens; SF-295 (CNS cancer), single dose 10 μM; read-out: Growth inhibition percentage (GI %)
[14] = system: SF-539; assay: as above; type: cell-based; settings: Homo sapiens; SF-539 (CNS cancer), single dose 10 μM; read-out: Growth inhibition percentage (GI %)
[15] = system: LOX IMVI; assay: as above; type: cell-based; settings: Homo sapiens; LOX IMVI (melanoma), single dose 10 μM; read-out: Growth inhibition percentage (GI %)
[16] = system: MDA-MB-435; assay: as above; type: cell-based; settings: Homo sapiens; MDA-MB-435 (melanoma), single dose 10 μM; read-out: Growth inhibition percentage (GI %)
[17] = system: SK-MEL-2; assay: as above; type: cell-based; settings: Homo sapiens; SK-MEL-2 (melanoma), single dose 10 μM; read-out: Growth inhibition percentage (GI %)
[18] = system: UACC-62; assay: as above; type: cell-based; settings: Homo sapiens; UACC-62 (melanoma), single dose 10 μM; read-out: Growth inhibition percentage (GI %)
[19] = system: IGROV1; assay: as above; type: cell-based; settings: Homo sapiens, IGROV-1; IGROV1 (ovarian cancer), single dose 10 μM; read-out: Growth inhibition percentage (GI %)
[20] = system: NCI/ADR-RES; assay: as above; type: cell-based; settings: Homo sapiens; NCI/ADR-RES (ovarian cancer), single dose 10 μM; read-out: Growth inhibition percentage (GI %)
[21] = system: 786-0; assay: as above; type: cell-based; settings: Homo sapiens, 786-0, 786-0 (renal cancer), single dose 10 μM; read-out: Growth inhibition percentage (GI %)
[22] = system: A498; assay: as above; type: cell-based; settings: Homo sapiens; A498 (renal cancer), single dose 10 μM; read-out: Growth inhibition percentage (GI %)
[23] = system: RXF 393; assay: as above; type: cell-based; settings: Homo sapiens; RXF 393 (renal cancer), single dose 10 μM; read-out: Growth inhibition percentage (GI %)
[24] = system: UO-31; assay: as above; type: cell-based; settings: Homo sapiens; UO-31 (renal cancer), single dose 10 μM; read-out: Growth inhibition percentage (GI %)
[25] = system: MDA-MB-231/ATCC; assay: as above; type: cell-based; settings: Homo sapiens; MDA-MB-231/ATCC (breast cancer), single dose 10 μM; read-out: Growth inhibition percentage (GI %)
[26] = system: BT-549; assay: as above; type: cell-based; settings: Homo sapiens; BT-549 (breast cancer), single dose 10 μM; read-out: Growth inhibition percentage (GI %)
[27] = system: MDA-MB-468; assay: as above; type: cell-based; settings: Homo sapiens; MDA-MB-468 (breast cancer), single dose 10 μM; read-out: Growth inhibition percentage (GI %)
[28] = system: 60 human subpanel cancer cell lines; assay: NCI 60 antitumor screening, mean over the panel (single dose); type: cell-based; settings: mean over 60 cancer cell lines, single dose 10 μM
Method in brief: as §1

SMILES | inhibition at 10 µM [1] | inhibition at 10 µM [2] | inhibition at 10 µM [3] | inhibition at 10 µM [4] | inhibition at 10 µM [5] | inhibition at 10 µM [6] | inhibition at 10 µM [7] | inhibition at 10 µM [8] | inhibition at 10 µM [9] | inhibition at 10 µM [10] | inhibition at 10 µM [11] | inhibition at 10 µM [12] | inhibition at 10 µM [13] | inhibition at 10 µM [14] | inhibition at 10 µM [15] | inhibition at 10 µM [16] | inhibition at 10 µM [17] | inhibition at 10 µM [18] | inhibition at 10 µM [19] | inhibition at 10 µM [20] | further results
Clc1cccc(/C=N/Nc2nc(N/N=C/c3cccc(Cl)c3Cl)nc(N3CCCCC3)n2)c1Cl [compound 7h, 2,4-Bis[(E)-2-[(2,3-Dichlorophenyl)methylidene]hydrazin-1-yl]-6-(piperidin-1-yl)-1,3,5-triazine] | 28.7% | 6.61% | 66.6% | 11% | 13.8% | 2.64% | 4.59% | 8.78% | 9.72% | 51.2% | 34.5% | 57.4% | 7.34% | 15.7% | 31.7% | -13.8% | 2.27% | 31.7% | 20.4% | 32.6% | inhibition at 10 µM [21]: -1.71%; inhibition at 10 µM [22]: 7.46%; inhibition at 10 µM [23]: -11.8%; inhibition at 10 µM [24]: 6.76%; inhibition at 10 µM [25]: 15.8%; inhibition at 10 µM [26]: 2.7%; inhibition at 10 µM [27]: 7.19%; Mean GI % [28]: 18.81%
Fc1cccc(Cl)c1/C=N/Nc1nc(N/N=C/c2c(F)cccc2Cl)nc(N2CCOCC2)n1 [compound 6l, 2,4-Bis[(E)-2-[(2-Chloro-6-fluorophenyl)methylidene]hydrazin-1-yl]-6-(morpholin-4-yl)-1,3,5-triazine] | 18.9% | 41.1% | 27.8% | 45.5% | 27% | 5.25% | 12.9% | -16.5% | 29.6% | 16.4% | 22.1% | 9.73% | 49.5% | 7.53% | 5.3% | 19.4% | 17.1% | 19.8% | 41.4% | 16.8% | inhibition at 10 µM [21]: 3.32%; inhibition at 10 µM [22]: 26.9%; inhibition at 10 µM [23]: 17.8%; inhibition at 10 µM [24]: 33.5%; inhibition at 10 µM [25]: 10.7%; inhibition at 10 µM [26]: -1.45%; inhibition at 10 µM [27]: 24.6%; Mean GI % [28]: 19.00%
